Literature values in article PMC9663925, “Phase I pharmacokinetic study of an oral, small-molecule MEK inhibitor tunlametinib in patients with advanced NRAS mutant melanoma” (Frontiers in Pharmacology, 2022).
Read-outs that look alike come from different tables or passages of the source. Values belong to the molecule of their own block, whether it stands above or below them.

Tmax (ref Bendell et al., 2017): 1.00 to 3.00 h
SMILES: Cn1cnc2c(F)c(Nc3ccc(Br)cc3F)c(C(=O)NOCCO)cc21 [binimetinib]

Tmax (ref Infante et al., 2012): 1.0 to 2.08 h
SMILES: CC(=O)Nc1cccc(-n2c(=O)n(C3CC3)c(=O)c3c(Nc4ccc(I)cc4F)n(C)c(=O)c(C)c32)c1 [trametinib]

Tmax (ref Adjei et al., 2008): 1.0 to 3 h
SMILES: Cn1cnc2c(F)c(Nc3ccc(Br)cc3Cl)c(C(=O)NOCCO)cc21 [selumetinib]

Tmax (ref Rosen et al., 2016): 2.4 to 3 h
SMILES: O=C(c1ccc(F)c(F)c1Nc1ccc(I)cc1F)N1CC(O)([C@@H]2CCCCN2)C1 [cobimetinib]
